# Values quoted from earlier work, collected in patent US20030026872A1, “Compositions having enhanced aqueous solubility and methods of their preparation” (The Procter & Gamble Co., priority 2001, published 2003).
# Peptide text beside a SMILES is read from it.
# Details: relative to sucrose
row,Compound,relative sweetening intensity (RSI)
1,CC1=CC(=O)[N-]S(=O)(=O)O1.[K+] [acesulfame K],about 200 times that of sucrose
2,C[C@@H](NC(=O)[C@@H](N)CC(=O)O)C(=O)NC1C(C)(C)SC1(C)C [alitame],about 2000 times that of sucrose
3,"COC(=O)[C@H](Cc1ccccc1)NC(=O)[C@@H](N)CC(=O)O [aspartame, N-L-alpha-aspartyl-phenylalanine-l-methyl ester] (H-Asp-Phe-OMe)",about 180 times that of sucrose
4,OC[C@@H](O)[C@@H](O)CO [erythritol],about 0.7 times that of sucrose
5,CC(C)=CCC[C@](C)(O)[C@@H]1CCC(C)=CC1=O [hemandulcin],about 1000 times that of sucrose
6,OC[C@@H](O)[C@@H](O[C@@H]1O[C@H](CO)[C@H](O)[C@H](O)[C@H]1O)[C@H](O)[C@@H](O)CO [lactitol],about 0.4 times that of sucrose
7,OC[C@@H](O)[C@@H](O[C@H]1O[C@H](CO)[C@@H](O)[C@H](O)[C@H]1O)[C@H](O)[C@@H](O)CO [maltitol],about 0.8 times that of sucrose
8,OC[C@@H](O)[C@@H](O)[C@H](O)[C@H](O)CO [mannitol],about 0.7 times that of sucrose
9,O=C1NS(=O)(=O)c2ccccc21 [saccharin],about 300 times that of sucrose
10,OC[C@@H](O)[C@@H](O)[C@H](O)[C@@H](O)CO [sorbitol],about 0.6 times that of sucrose
11,C=C1C[C@@]23CC[C@H]4[C@@](C)(CCC[C@@]4(C)C(=O)O[C@@H]4O[C@H](CO)[C@@H](O)[C@H](O)[C@H]4O)[C@@H]2CC[C@]1(O[C@@H]1O[C@H](CO)[C@@H](O)[C@H](O)[C@H]1O[C@@H]1O[C@H](CO)[C@@H](O)[C@H](O)[C@H]1O)C3 [stevioside],about 300 times that of sucrose
12,OC[C@H]1O[C@H](O[C@]2(CCl)O[C@H](CCl)[C@@H](O)[C@@H]2O)[C@H](O)[C@@H](O)[C@H]1Cl [sucralose],about 600 times that of sucrose
13,OC[C@H]1O[C@@](CO)(O[C@H]2O[C@H](CO)[C@@H](O)[C@H](O)[C@H]2O)[C@@H](O)[C@@H]1O [sucrose],one
14,OC[C@@H](O)[C@H](O)[C@@H](O)CO [xylitol],about equal to sucrose
15,cyclamates,about 30 times that of sucrose
16,isomalt,about 0.5 times that of sucrose
